Assay results published in patent US5247119A, “Phenylacetonitrilehydroxyalkylaminoalkyl-ortho-substituted aryl compounds as immunosuppressives” (G. D. Searle & Co., priority 1992, dated 1993).

Tests used:
Type in all cases: cell-based, female Balb/c mice
[1] = tested on: spleen cell leukocytes (cell viability); assay: in vitro; conditions: 48 h
Procedure: (§1) Measurement of drug-induced cellular cytotoxicity was determined after 48 hours of cell culture with and without conA and with and without test compound or vehicle control. All cell preparations and assay conditions were identical to those described in Assay A. A fluorescence based assay was used to measure cell viability using the carboxyfluorescein derivative 2'-7'-biscarboxyethyl-5 (6)-carboxyfluorecein (BCECF) as a vital dye [Leeder, J. S., Dosch, H. M., Harper, P. A., Lam, P. and S. P. Spielberg, 1989. Anal. Biochem. 177, 364-372]. The membrane permeant, nonfluorescent ester derivitive, BCECF-AM (100 μl of a 2 ug/ml solution in phosphate buffered saline, pH 7.0, Molecular Probes, Eugene, OR) was added to each cell culture and incubated at 37° C. for 30 min. […] The cells were washed and concentrated on the well membrane under low vacuum, and cell associated fluorescence was measured by front surface fluorometry (485/535 nM) in the Screen Machine (Baxter) using an automated protocol. Probit analysis was used to determine viability as a percentage of relative fluorescence units (RFU) compared to control (cells and medium). The dose of test compound that induced at least 50% cellular toxicity, i.e., a 50% reduction in RFU compared to unstimulated control cells, was recorded.

[2] = tested on: conA-stimulated T cell proliferation (spleen cells); assay: Assay A: Suppression of Murine Mitogen-Stimulated Proliferation; conditions: conA 1 ug/ml, 3 days culture, MTT readout, n = 2
Description: Assay A: Suppression of Murine Mitogen-Stimulated Proliferation
It is known that lymphocyte activation can be polyclonally stimulated by plant lectins and other mitogenic substances that induce blast transformation and mitosis. The plant lectin concanavalin A (conA) preferentially induces activation and proliferation of T lymphocytes. Exposure of T cells to conA results in polyclonal T cell activation, and this response can be used to determine the in vitro index of immunomodulatory effects of test compounds on pan-T cell activation. Spleen cells were harvested aseptically from female Balb/c mice, and cells were extruded by compression in phosphate buffered saline (pH 7.0). […] The remaining cells were pelleted, resuspended in medium, filtered through a cotton plug to remove debris, and the leukocytes were then counted. […] Inhibition of conA-stimulated T cell proliferation was measured using a colorimetric indicator of cell growth and proliferation, MTT [3-(4,5-dimethylthiazol-2-yl)-2 diphenyltetrazolium bromide; 100 μl of a 1 mg/ml solution per well, SIGMA] […] Light absorbance was measured at a test wavelength of 570 nm and a reference wavelength of 650 nm using a spectrophotometer. […]

in vitro = conditions: spleen cell leukocytes
Procedure: as §1

Work on `COc1ccc(CCN(C)CC(O)CC(C#N)(c2ccc(OC)c(OC)c2)C(C)C)cc1OC` (racemic) [Example 1-B, α-[3-[[2-(3,4-dimethoxyphenyl)ethyl]methylamino]-2-hydroxypropyl]-3,4-dimethoxy-α-(1-methylethyl)benzeneacetonitrile] yielded a CC50 [1] of 60 µM and an EC50 [2] of 17.9 ± 8.16 µM.

For `COc1ccc(CCN(C)CC(O)CC(C#N)(c2ccc(OC)c(OC)c2)C(C)C)cc1OC` (racemic) [Example 1-A, α-[3-[[2-(3,4-dimethoxyphenyl)ethyl]methylamino]-2-hydroxypropyl]-3,4-dimethoxy-α-(1-methylethyl)benzeneacetonitrile], the CC50 at 48 h (in vitro) was 60 µM and the EC50 ([2]; Mus musculus, T-cell, 72 h) was 12.9 ± 5.75 µM.
